Laboratory results: ChEMBL document CHEMBL4261633, “Butenolides from a marine-derived fungus Aspergillus terreus with antitumor activities against pancreatic ductal adenocarcinoma cells” (Bioorg Med Chem, 2018)
pIC50: −log10 of the molar value. Activity calls are given as the source filed them. The calls are words filed in the database; no cut-off is given here.

Columns and labels:
PANC-1 [1] = assay: Induction of apoptosis in human PANC1 cells assessed as viable cells at 15 uM after 24 hrs by FITC-Annexin V/propidium iodide staining-based flow cytometric analysis (reference value: 94.7 to 98.7%); assay type: functional; conditions: PANC-1, 24 h, read-out: Activity
PANC-1 [2] = assay: Induction of apoptosis in human PANC1 cells assessed as viable cells at 5 uM after 24 hrs by FITC-Annexin V/propidium iodide staining-based flow cytometric analysis (reference value: 94.7 to 98.7%); assay type: functional; conditions: PANC-1, 24 h, read-out: Activity
PANC-1 [3] = assay: Cell cycle arrest in human PANC1 cells assessed as accumulation at S phase at 10 uM after 24 hrs by RNAase/propidium iodide staining-based flow cytometric analysis (reference value: 11.66 to 19.02%); assay type: functional
PANC-1 [4] = assay: Induction of apoptosis in human PANC1 cells assessed as nuclear shrinkage at 10 uM after 24 hrs by Hoechst 33258 staining based fluorescence microscopic analysis; assay type: functional, cell-based
PANC-1 [5] = assay: Induction of apoptosis in human PANC1 cells assessed as necrotic cells at 15 uM after 24 hrs by FITC-Annexin V/propidium iodide staining-based flow cytometric analysis (reference value: 0.7 to 1.4%); assay type: functional
HT-29 = assay: Antiproliferative activity against human HT-29 cells after 24 hrs by CCK8 assay; assay type: functional, cell-based; conditions: HT-29, 24 h
PANC-1 [6] = assay: Induction of apoptosis in human PANC1 cells after 24 hrs by FITC-Annexin V/propidium iodide staining-based flow cytometric analysis; assay type: functional, cell-based
HepG2 = assay: Antiproliferative activity against human HepG2 cells after 24 hrs by CCK8 assay; assay type: functional, cell-based; conditions: HepG2, 24 h
PANC-1 [7] = assay: Induction of apoptosis in human PANC1 cells assessed as necrotic cells at 10 uM after 24 hrs by FITC-Annexin V/propidium iodide staining-based flow cytometric analysis (reference value: 0.7 to 1.4%); assay type: functional
HCC1806 = assay: Antiproliferative activity against human HCC1806 cells after 24 hrs by CCK8 assay; assay type: functional, cell-based; conditions: HCC1806, 24 h
PANC-1 [8] = assay: Induction of apoptosis in human PANC1 cells assessed as early apoptotic cells at 5 uM after 24 hrs by FITC-Annexin V/propidium iodide staining-based flow cytometric analysis (reference value: 0.5 to 3.2%); assay type: functional
PANC-1 [9] = assay: Cell cycle arrest in human PANC1 cells assessed as accumulation at G1 phase at 5 uM after 24 hrs by RNAase/propidium iodide staining-based flow cytometric analysis (reference value: 67.93 to 75.87%); assay type: functional
PANC-1 [10] = assay: Induction of apoptosis in human PANC1 cells assessed as necrotic cells at 5 uM after 24 hrs by FITC-Annexin V/propidium iodide staining-based flow cytometric analysis (reference value: 0.7 to 1.4%); assay type: functional
PANC-1 [11] = assay: Induction of apoptosis in human PANC1 cells assessed as early apoptotic cells at 15 uM after 24 hrs by FITC-Annexin V/propidium iodide staining-based flow cytometric analysis (reference value: 0.5 to 3.2%); assay type: functional
PANC-1 [12] = assay: Induction of apoptosis in human PANC1 cells assessed as nuclear chromatin condensation at 10 uM after 24 hrs by Hoechst 33258 staining based fluorescence microscopic analysis; assay type: functional, cell-based
PANC-1 [13] = assay: Induction of apoptosis in human PANC1 cells assessed as late apoptotic cells at 15 uM after 24 hrs by FITC-Annexin V/propidium iodide staining-based flow cytometric analysis (reference value: 0.0 to 0.7%); assay type: functional
PANC-1 [14] = assay: Cell cycle arrest in human PANC1 cells assessed as accumulation at S phase at 5 uM after 24 hrs by RNAase/propidium iodide staining-based flow cytometric analysis (reference value: 11.66 to 19.02%); assay type: functional
PANC-1 [15] = assay: Induction of apoptosis in human PANC1 cells assessed as viable cells at 10 uM after 24 hrs by FITC-Annexin V/propidium iodide staining-based flow cytometric analysis (reference value: 94.7 to 98.7%); assay type: functional; conditions: PANC-1, 24 h, read-out: Activity
PANC-1 [16] = assay: Cell cycle arrest in human PANC1 cells assessed as accumulation at S phase at 25 uM after 24 hrs by RNAase/propidium iodide staining-based flow cytometric analysis (reference value: 11.66 to 19.02%); assay type: functional
PANC-1 [17] = assay: Induction of apoptosis in human PANC1 cells assessed as late apoptotic cells at 10 uM after 24 hrs by FITC-Annexin V/propidium iodide staining-based flow cytometric analysis (reference value: 0.0 to 0.7%); assay type: functional
PANC-1 [18] = assay: Cell cycle arrest in human PANC1 cells assessed as accumulation at G1 phase at 10 uM after 24 hrs by RNAase/propidium iodide staining-based flow cytometric analysis (reference value: 67.93 to 75.87%); assay type: functional
PANC-1 [19] = assay: Cell cycle arrest in human PANC1 cells assessed as accumulation at G1 phase at 25 uM after 24 hrs by RNAase/propidium iodide staining-based flow cytometric analysis (reference value: 67.93 to 75.87%); assay type: functional
PANC-1 [20] = assay: Induction of apoptosis in human PANC1 cells assessed as viable cells at 25 uM after 24 hrs by FITC-Annexin V/propidium iodide staining-based flow cytometric analysis (reference value: 94.7 to 98.7%); assay type: functional; conditions: PANC-1, 24 h, read-out: Activity
PANC-1 [21] = assay: Induction of apoptosis in human PANC1 cells assessed as necrotic cells at 25 uM after 24 hrs by FITC-Annexin V/propidium iodide staining-based flow cytometric analysis (reference value: 0.7 to 1.4%); assay type: functional
PANC-1 [22] = assay: Cell cycle arrest in human PANC1 cells assessed as accumulation at G2/M phase at 25 uM after 24 hrs by RNAase/propidium iodide staining-based flow cytometric analysis (reference value: 6.83 to 11.82%); assay type: functional
PANC-1 [23] = assay: Cell cycle arrest in human PANC1 cells assessed as accumulation at G2/M phase at 5 uM after 24 hrs by RNAase/propidium iodide staining-based flow cytometric analysis (reference value: 6.83 to 11.82%); assay type: functional
PANC-1 [24] = assay: Induction of apoptosis in human PANC1 cells assessed as nuclear shrinkage at 25 uM after 24 hrs by Hoechst 33258 staining based fluorescence microscopic analysis; assay type: functional, cell-based
PANC-1 [25] = assay: Induction of apoptosis in human PANC1 cells assessed as early apoptotic cells at 25 uM after 24 hrs by FITC-Annexin V/propidium iodide staining-based flow cytometric analysis (reference value: 0.5 to 3.2%); assay type: functional
PANC-1 [26] = assay: Cell cycle arrest in human PANC1 cells assessed as accumulation at G1 phase at 15 uM after 24 hrs by RNAase/propidium iodide staining-based flow cytometric analysis (reference value: 67.93 to 75.87%); assay type: functional
PANC-1 [27] = assay: Cell cycle arrest in human PANC1 cells assessed as accumulation at G2/M phase at 10 uM after 24 hrs by RNAase/propidium iodide staining-based flow cytometric analysis (reference value: 6.83 to 11.82%); assay type: functional
PANC-1 [28] = assay: Cell cycle arrest in human PANC1 cells assessed as accumulation at S phase at 15 uM after 24 hrs by RNAase/propidium iodide staining-based flow cytometric analysis (reference value: 11.66 to 19.02%); assay type: functional
PANC-1 [29] = assay: Induction of apoptosis in human PANC1 cells assessed as nuclear fragmentation at 25 uM after 24 hrs by Hoechst 33258 staining based fluorescence microscopic analysis; assay type: functional, cell-based
PANC-1 [30] = assay: Induction of apoptosis in human PANC1 cells assessed as early apoptotic cells at 10 uM after 24 hrs by FITC-Annexin V/propidium iodide staining-based flow cytometric analysis (reference value: 0.5 to 3.2%); assay type: functional
PANC-1 [31] = assay: Induction of apoptosis in human PANC1 cells assessed as late apoptotic cells at 5 uM after 24 hrs by FITC-Annexin V/propidium iodide staining-based flow cytometric analysis (reference value: 0.0 to 0.7%); assay type: functional
BEAS-2B = assay: Antiproliferative activity against human BEAS2B cells after 24 hrs by CCK8 assay; assay type: functional, cell-based
PANC-1 [32] = assay: Induction of apoptosis in human PANC1 cells assessed as late apoptotic cells at 25 uM after 24 hrs by FITC-Annexin V/propidium iodide staining-based flow cytometric analysis (reference value: 0.0 to 0.7%); assay type: functional
PANC-1 [33] = assay: Induction of apoptosis in human PANC1 cells assessed as nuclear fragmentation at 10 uM after 24 hrs by Hoechst 33258 staining based fluorescence microscopic analysis; assay type: functional, cell-based
PANC-1 [34] = assay: Antiproliferative activity against human PANC1 cells after 24 hrs by CCK8 assay; assay type: functional, cell-based; conditions: PANC-1, 24 h
PANC-1 [35] = assay: Cell cycle arrest in human PANC1 cells assessed as accumulation at G2/M phase at 15 uM after 24 hrs by RNAase/propidium iodide staining-based flow cytometric analysis (reference value: 6.83 to 11.82%); assay type: functional
PANC-1 [36] = assay: Induction of apoptosis in human PANC1 cells assessed as nuclear chromatin condensation at 25 uM after 24 hrs by Hoechst 33258 staining based fluorescence microscopic analysis; assay type: functional, cell-based

COC(=O)[C@]1(Cc2ccc(O)c(CC=C(C)C)c2)OC(=O)C(O)=C1c1ccccc1
viability at 15 µM (PANC-1 [1]): 83.2% | viability at 5 µM (PANC-1 [2]): 91.1% | Activity (PANC-1 [3]): 31.28% | Activity (PANC-1 [4]): Active | Activity (PANC-1 [5]): 0.9% | pIC50 (HT-29): < 4.70 | Activity (PANC-1 [6]): Dose-dependent effect | pIC50 (HepG2): 4.89 | Activity (PANC-1 [7]): 1.2% | pIC50 (HCC1806): 4.73 | Activity (PANC-1 [8]): 6.8% | Activity (PANC-1 [9]): 72.84% | Activity (PANC-1 [10]): 1.3% | Activity (PANC-1 [11]): 14.9% | Activity (PANC-1 [12]): Active | Activity (PANC-1 [13]): 1% | Activity (PANC-1 [14]): 10.92% | viability at 10 µM (PANC-1 [15]): 83.9% | Activity (PANC-1 [16]): 42.63% | Activity (PANC-1 [17]): 1.4% | Activity (PANC-1 [18]): 56.57% | Activity (PANC-1 [19]): 43.95% | viability at 25 µM (PANC-1 [20]): 73.6% | Activity (PANC-1 [21]): 2.3% | Activity (PANC-1 [22]): 10.63% | Activity (PANC-1 [23]): 7.77% | Activity (PANC-1 [24]): Active | Activity (PANC-1 [25]): 21.1% | Activity (PANC-1 [26]): 52.41% | Activity (PANC-1 [27]): 8.14% | Activity (PANC-1 [28]): 32.92% | Activity (PANC-1 [29]): Active | Activity (PANC-1 [30]): 13.6% | Activity (PANC-1 [31]): 0.8% | pIC50 (BEAS-2B): < 4.70 | Activity (PANC-1 [32]): 3% | Activity (PANC-1 [33]): Active | pIC50 (PANC-1 [34]): 5.03 | Activity (PANC-1 [35]): 7.7% | Activity (PANC-1 [36]): Active
